Legend:
[1] = test system: R6/2 brain slices; test: polyQ density (immunohistochemical detection of PolyQ inclusions) in R6/2 corticostriatal slice cultures; assay type: cell-based, mouse; conditions: DIV14 to DIV21, read at DIV21, vs DMSO treated R6/2 slices
Method: (§1) Slice cultures were established according to described procedures. (L. Stoppini et al., J. Neurosci. Methods 37(2): 173-82 (1991) and N. Gogolla et al., Nat. Protoc. 1(3): 1165-71 (2006)). A particular cutting angle was utilized to produce brain slices with a preserved cortico-striatal pathway. Finally, slices were selected, placed on Millicel (Millipore, PICM03050) and cultured in 6-well dishes at 35° C. and 5% CO2 in the presence of 1 ml of culture medium.
(§2) Slices were treated with different mTOR inhibitors from DIV14 to DIV21. The culture medium was exchanged every second day, and drugs were added in the fresh culture medium. We used this protocol to evaluate the action of the following mTOR inhibitors: RTB101 (50 and 300 nM in DMSO), everolimus (250 nM in DMSO), CCG168 (300 nM in DMSO), and everolimus+RTB101 (250 and 10, 250and 30 and 250 and 50 nM in DMSO). […]
(§3) High resolution images were acquired on an upright Zeiss LSM700 confocal microscope, using a Plan-Neofluar 40x/1.3 oil immersion objective. For the quantification of the PolyQ density and DARPP-32/NeuF signal intensity, at least three confocal 3D stacks/slice were acquired in striatum for each experiment (five slices per condition), and analyzed using Imaris 4.2 (BitplaneAG) and Image J softwares. All data are expressed as mean±SEM. […]

[2] = test system: R6/2 brain slices; test: Striatal degeneration: DARPP-32 intensity and neurofilament levels in R6/2 slice cultures; assay type: cell-based, mouse; conditions: single low-concentrations (everolimus 250 nM; RTB101 50 nM), DIV21
Method: as §1, §2, §3

| SMILES | polyQ density ([1]; 50 nM RTB101 single treatment) | DARPP-32 level [2] | neurofilament level [2] | polyQ density ([1]; 250 nM everolimus single treatment) |
| --- | --- | --- | --- | --- |
| Cn1c(=O)n(-c2ccc(C(C)(C)C#N)cc2)c2c3cc(-c4cnc5ccccc5c4)ccc3ncc21 [RTB101, 2-methyl-2-[4-(3-methyl-2-oxo-8-quinolin-3-yl-2,3-dihydro-imidazo[4,5-c]quinolin-1-yl)-phenyl]-propionitrile] | no effect | – | – | – |
| CO[C@H]1C[C@@H]2CC[C@@H](C)[C@@](O)(O2)C(=O)C(=O)N2CCCC[C@H]2C(=O)O[C@H]([C@H](C)C[C@@H]2CC[C@@H](OCCO)[C@H](OC)C2)CC(=O)[C@H](C)/C=C(\C)[C@@H](O)[C@@H](OC)C(=O)[C@H](C)C[C@H](C)/C=C/C=C/C=C/1C [everolimus, (1R,9S,12S,15R,16E,18R,19R,21R,23S,24E,26E,28E,30S,32S,35R)-1,18-dihydroxy-12-{(1R)-2-[(1S,3R,4R)-4-(2-hydroxyethoxy)-3-methoxycyclohexyl]-1-methylethyl}-19,30-dimethoxy-15,17,21,23,29,35-hexamethyl-11,36-dioxa-4-aza-tricyclo[30.3.1.04,9]hexatriaconta-16,24,26,28-tetraene-2,3,10,14,20-pentaone] | – | ineffective | ineffective | no effect |

From patent publication US10596165B2, “Combination therapies” (resTORbio, Inc., priority 2018, dated 2020)
